In patent US20260355318A1, “MOLECULAR MACHINES FOR TREATMENT OF CANCER, FUNGAL INFECTIONS, OR BACTERIAL INFECTIONS” (priority 2022, published 2026):

Key:
C. albicans [1] = experiment: Lipid peroxidation (TBARS, MDA); assay type: cell-based, Candida albicans; settings: 2×MIC
Method: Superoxide dismutase (SOD) activity was determined using a Superoxide Dismutase Assay Kit (Caymanchem, MI, USA) per the distributor's instructions. Lipid peroxidation was determined using a TBARS assay kit (TCA method) (Caymanchem, MI, USA) per the distributor's instructions. SOD activity and MDA levels were normalized by protein content determined by the Pierce assay (Pierce™ BCA Protein Assay Kit, Thermo Fisher Scientific, MA, USA).

C. albicans [2] = experiment: Time-kill assay, C. albicans; assay type: cell-based, Candida albicans; settings: C. albicans, 2×MIC, 405-nm light at 292 mW cm^−2
Method: For yeasts, five independent colonies were collected from 24-h SDAE plates, inoculated into yeast peptone with 2% dextrose (YPD), and grown for 24 h at 30 °C. Cells were then sub-cultured in fresh medium and grown for ~9 h. Afterward, the cells were centrifuged (5,000 ×g, 5 min), washed, and resuspended in phosphate-buffered saline (PBS) to ~10^6 CFU mL^−1. For A. fumigatus, conidia suspensions (~10^4 CFU mL^−1) were prepared in PBS as previously described.
Amphotericin B (AMB, 4×MIC) controls were prepared likewise, but light was omitted. Aliquots were collected in 1-min increments for up to 10 min, serially diluted in PBS, and plated on SDAE medium. Plates were incubated at 30 ° C for 48 h with confirmation after 72 h (yeasts) or at 28 ° C for 7 days with confirmation after 14 days (A. fumigatus), after which the CFU number was determined. The results were expressed as the logarithm of base 10 of the ratio between the CFU at each time point and the CFU at time 0. The detection limit of the method was ~1 log10 CFU mL^−1.

E. cloacae = experiment: MIC, E. cloacae; assay type: cell-based; settings: Enterobacter cloacae, read-out: MIC of MM
Method: (§1) The appropriate volume of an MM stock at 8 mM necessary to achieve a concentration ranging from 0.3125 to 40 μM was pipetted into a 2 mL microcentrifuge tube to which 1 mL of cell suspension prepared as previously described was added. Corresponding negative controls (DMSO only) were prepared in the same way. The mixture was gently mixed by pipetting and incubated in the dark at 30 or 37 ° C, depending on the strain, for 30 min with agitation (220 rpm). Afterward, MM- or DMSO-treated cells were dispensed in one well of a 24-well plate positioned in the center of the light beam (405 nm LED Light, Prizmatix, UHP—F-5-405) placed at the appropriate distance necessary to achieve the desired light intensity of 304 mW cm-2, 146 mW cm2 or 87 mW cm2, as measured with a handheld digital power meter console coupled to an S415C thermal power sensor head (Thorlabs, Newton, MA, USA). The temperature during irradiation was monitored using a thermocouple probe (Model SC-TT-K-30-36-PP; Omega Engineering, Inc., Stanford, CT, USA). Samples were agitated during irradiation. Dark controls were prepared as previously described except that no irradiation was provided. […]

E. coli = experiment: Extracellular ATP, E. coli; assay type: cell-based, Escherichia coli; settings: 1×MIC
Method: Intracellular content leakage following treatment with MMs was determined by quantifying extracellular ATP (O'Neill et al, 2004). Following irradiation in the presence of different concentrations of MM 1, MM 5, and MM 6, or 1% DMSO, E. coli cells were centrifuged at 13,000 g for 5 min. Supernatants were recovered and stored at −20 ° C for ATP analysis. ATP analysis was conducted using the luminescence-based BacTiter-Glo™ assay (Promega) per the manufacturer's instructions. Nisin was used as a positive control. The levels of ATP in supernatants were derived via a standard curve of ATP standards from 1 nM to 1 μM. Luminescence measurements of ATP standards and culture supernatants were measured in triplicate on a microplate reader (BioTek Instruments Inc, Winooski, VT, USA). Results were expressed as relative light units (RLU) corrected for […] in the absence of cells.

E. coli transcripts = experiment: RNAseq of MM 1-treated E. coli; assay type: cell-based, Escherichia coli
Method: Three independent, well-isolated colonies of E. coli were cultured to mid-log phase in MHB media. Cells were collected and resuspended in PBS (1×) to an OD600 of ≈0.05. […] Cells were then irradiated for 5 min at 146 mW cm^−2 (43.8 J cm^−2). Bacterial cells were collected onto a 0.2 μm PES filter by low vacuum filtration. Two volumes of RNAprotect (Qiagen, Valencia, CA) were added to the cells, and the samples were then centrifuged at 5000 g for 25 min at 4 ° C to pellet cells. RNA was isolated using the RNeasy Mini Kit (Qiagen, Valencia, CA) per the manufacturer's instructions. RNA sequencing (RNAseq) and data analysis were performed by DNA Link Inc. (Seoul, Republic of Korea). RNA-Seq libraries were constructed by using TruSeq Stranded Total RNA with Ribo-Zero Plus rRNA Depletion Kit and sequenced on the Illumina NovaSeq6000 platform (Illumina, San Diego, CA) in the 100 nt, paired-end configuration. From each sample, an average of 70 million reads was obtained. For gene expression analysis, reads were trimmed with cutadapt (Magoc et al., 2013) and aligned to the reference genome of Escherichia coli str. K-12 substr. MG1655 (NC_000913) using EDGE-pro pipeline with default setting. Differential expression analysis was performed with DESeq2 in Bioconductor (Love et al., 2014). Gene annotation was performed using an in-house script based on NCBI reference annotations.

B. megaterium = experiment: MIC, B. megaterium; assay type: cell-based, Bacillus megaterium; settings: Priestia megaterium, 405 nm light
Method: as §1

With C[C@@H]1Cc2ccc3ccccc3c2/C1=C1\c2ccccc2Sc2cc(NCCN)ccc21 (racemic) [MM 6, N^1-(9-(2-methyl-2,3-dihydro-1H-cyclopenta[a]naphthalen-1-ylidene)-9H-thioxanthen-3-yl)ethane-1,2-diamine] the “lipid peroxidation product levels” value (C. albicans [1]) was “increased levels of the lipid peroxidation product malonaldehyde”, the “time to reduce cell numbers to limit of detection” value (C. albicans [2]) was 5 min and the MIC (E. cloacae) was 10 µM.
With C[C@@H]1Cc2ccc3ccccc3c2/C1=C1\c2ccccc2Sc2cc(NCCN(C)C)ccc21 [MM 1, N^1N^1-dimethyl-N^2-(9-(2-methyl-2,3-dihydro-1H-cyclopenta[a]naphthalen-1-ylidene)-9H-thioxanthen-3-yl) ethane-1,2-diamine] the “extracellular levels of ATP” value (E. coli) was “up to 1.2×10^−7 moles”, the “transcripts significantly more abundant in MM-treated samples” value (E. coli transcripts; 0.5×MIC) was 1362 transcripts and the “transcripts with significantly different levels vs DMSO” value (E. coli transcripts; 0.5×MIC, p<0.05) was 2694 transcripts. For the same compound, the “transcripts significantly more abundant in DMSO controls” value (E. coli transcripts; MM 1 0.5×MIC versus DMSO) was 1332 transcripts, the “maximum difference in transcript abundance between treatments” value (E. coli transcripts; MM 1 versus DMSO) was ≤ 5 fold and the “Transcript Fold Change, argC” value (E. coli transcripts; gene argC, p<0.05, 5 min) was 2.0. For the same compound, the “Transcript Fold Change, argF” value (E. coli transcripts; gene argF, p<0.05, 5 min) was 2.2, the “Transcript Fold Change, argI” value (E. coli transcripts; gene argI, p<0.05, 5 min) was 2.8 and the “Transcript Fold Change, artJ” value (E. coli transcripts; gene artJ, p<0.05, 5 min) was 2.5. The “Transcript Fold Change, asr” value (E. coli transcripts; gene asr, p<0.05, 5 min) was 2.2, the “Transcript Fold Change, bfd” value (E. coli transcripts; gene bfd, p<0.05, 5 min) was 2.0 and the “Transcript Fold Change, cdh” value (E. coli transcripts; gene cdh, p<0.05, 5 min) was 2.5. The “Transcript Fold Change, prpB” value (E. coli transcripts; gene prpB, p<0.05, 5 min) was 5.5, the “Transcript Fold Change, prpC” value (E. coli transcripts; gene prpC, p<0.05, 5 min) was 5.0 and the “Transcript Fold Change, tauA” value (E. coli transcripts; gene tauA, p<0.05, 5 min) was 2.5. For the same compound, the “Transcript Fold Change, tynA” value (E. coli transcripts; gene tynA, p<0.05, 5 min) was 2.6, the “Transcript Fold Change, yiaW” value (E. coli transcripts; gene yiaW, p<0.05, 5 min) was 2.2 and the “Transcript Fold Change, ymdF” value (E. coli transcripts; gene ymdF, p<0.05, 5 min) was 2.4. The “Transcript Fold Change, ymgC” value (E. coli transcripts; gene ymgC, p<0.05, 5 min) was 2.3 and the MIC (B. megaterium) was 0.078 µM.
